Source: patent publication US20220193029A1, “BRYOSTATIN COMPOUNDS FOR ENHANCEMENT OF IMMUNOTHERAPY” (priority 2019, published 2022)

Tests used:
PKCα = biological target: T1, PKCα (Homo sapiens, UniProt P17252); assay: cell-free competitive PKC binding assay with [3H]-phorbol dibutyrate; settings: competition with [3H]-PDBu, recombinant human PKC isoform
T1 construct: purchased Invitrogen
Description: (§1) Because a prerequisite for PKC pathway involvement is binding to PKC, compounds were initially evaluated for PKC affinity in a cell-free competitive binding assay with tritiated phorbol dibutyrate ([^3H]-PDBu). Assays were performed with representative members of both the conventional (PKCα) and novel (PKCδ) PKC families. Subsequently, compounds were assayed for PKC activation in living cells using an isoform translocation assay.
(§2) To a 50 mL polypropylene tube was added Tris-HCl (pH 7.4, 1 M, 1 mL), KCl (1 M, 2 mL), CaCl2) (0.1 M, 30 μL), and bovine serum albumin (BSA, 40 mg, Sigma-Aldrich). This mixture was diluted to 20 mL with deionized H2O and mixed gently. The buffer was stored on ice until use.
(§3) For every two assays, 3.5 mg phosphatidylserine (Avanti Polar Lipids, porcine, 25 mg/mL CHCl3 solution) was concentrated by removing chloroform under a stream of nitrogen followed by reduced pressure. The solid PS was suspended as vesicles in freshly prepared PKC binding assay buffer (3.5 mL) by sonicating six times for 30 sec, with a 30 sec rest between sonications (Branson Sonifier 250, power=2, 50% duty cycle). The resulting milky cloudy mixture (1 mg/mL) was stored on ice until use.
(§4) Assay PKC was prepared by dissolving a 4 μg aliquot of the indicated recombinant human PKC isoform (Invitrogen) into 11.6 mL of PKC binding assay buffer (this amount is sufficient for two assays). The diluted PKC was stored on ice for immediate use.
(§5) ^3H-PDBu (American Radiolabeled Chemicals, Inc.; 1 mCi/mL acetone solution; specific activity: 20 Ci/mmol) was diluted […] with DMSO. The resulting 500 nM stock solution was further diluted with DMSO to 30 nM.
(§6) Compound dilutions were prepared by serially diluting from a chosen “high” concentration by factors of 3 or 4.
(§7) To a polypropylene tube was added 3.3 mL of 1 mg/mL PS vesicles solution, 11 mL of PKC isoform solution, and 1.1 mL of 30 nM ^3H-PDBu solution were added. The resulting solution was vortexed to mix and stored on ice.
(§8) Materials: • Glass-fiber filters (Whatman GF/B) were prepared by soaking them in a solution of aqueous polyethyleneimine (10% by vol, 18 mL) in deionized water (600 mL) for ≥1 h. • 500 mL “rinsing buffer” of 20 mM Tris, pH 7.4 was cooled on ice for the duration of the incubation period and for the remainder of the assay.
(§9) Triplicate data points were obtained for each analog concentration. For each data point, 280 μL of “Master Mix” Solution and 20 μL of analog compound at a specified concentration were added to a polypropylene tube. […] Maximal ^3H-PDBu binding was assessed in triplicate by substitution of the analog compound with 20 μL DMSO. The solutions were vortexed to mix, incubated at 37° C. for 10 min, and incubated on ice for at least 30 min prior to filtration. Using a Brandel Harvester, the assay contents from each polypropylene tube were vacuum-filtered through polyethylenimine-soaked filters, washing with rinsing buffer (3×) and drying first under vacuum for 5 min and then under ambient conditions for ≥2 h. The resulting filters had circular perforations for each data point, which were removed with forceps and placed in a scintillation vial. Scintillation vials were filled with Bio-Safe II scintillation fluid (5 mL) and measured for radioactivity using a Beckman LS 6000SC scintillation counter. Counts per minute (cpm) were averaged for each triplicate dilution. The data were plotted—cpm vs. log(concentration)—using Prism® by GraphPad Software and an IC50 was determined using that program's built-in one-site competition least squares regression function. Ki values were calculated using the equation: Ki=IC50/(1+([3H−PDBu]/Kd)). The Kd of ^3H-PDBu for PKC isoforms was measured separately via saturation binding experiments under identical conditions.

PKCδ-GFP fusion protein = assay: PKCδ-GFP translocation assay in living CHO-k1 cells (confocal microscopy); type: cell-based, Chinese hamster; settings: for concentration* (minimum effective concentration required to induce translocation of PKC-GFP to the membrane) / % Translocation: CHO-k1 cells; for % Translocation: maximum translocation of PKCδ-GFP to the plasma membrane at the concentration printed in the same cell, SUW212: only brief translocation observed
Description: as §1
Chinese hamster ovary factor K1 (CHO-k1, ATCC) cells were cultured in F-12 Kaighn's media (Hyclone, 10% fetal bovine serum, 1% penicillin/streptomycin added, referred to as F-12+/+ below) at 37° C. in an incubator (5% CO2). Cell cultures were maintained by splitting cells 1:3 when they reached ˜75-100% confluence (every 2-3 days) as follows:
1 mL of the cell suspension was then added to 9 mL of fresh F-12+/+ and the sample was sub-cultured until reaching confluence (˜2-3 days).
Cells were counted using a Countess II Automated Cell Counter (Fisher). The cell suspension was diluted to 240,000 cells/mL with fresh F-12+/+ and 2.5 mL of this diluted stock was added to one well in a 6-well plate. The cells were then cultured for 24 hours.
F-12+/+ was aspirated and cells were washed with F-12−/−. 2 mL of fresh F-12−/− was then added to each well, taking care not to disturb adherent cells. For each well of CHO-k1 cells, 12.5 μL Lipofectamine 2000 reagent (Invitrogen) was added to 250 μL Opti-MEM reduced serum media (Invitrogen) in a polypropylene tube and incubated for 20 minutes at RT. Meanwhile, for each well, 4 μg of PKCδ-GFP pDNA and 250 μL Opti-MEM reduced serum media was added to a separate polypropylene tube. 250 μL of the Lipofectamine 2000 suspension was added to the DNA suspension and the solution incubated for 30 minutes at RT. 500 μL of the Lipofectamine/DNA suspension was added to the respective wells of the 6-well plate. The cells were then incubated at 37° C. (5% CO2) for ˜24 hrs.
F-12+/+ was aspirated and cells were washed with F-12−/−. 2.4 mL of fresh F-12−/− was then added to each well, taking care not to disturb adherent cells. A 4 μg aliquot of PKCδ-GFP pDNA was added to PBS (pH 5.5, final volume 100 μL). 5.6 μL of DA 13:11 (2 mM stock in DMSO) was then added to the DNA solution, and the mixture was gently mixed (by flicking) for 20 seconds, at which point it was added directly to the respective wells of the 6-well plate. The cells were then incubated at 37° C. (5% C02) for ˜24 hrs.
After incubation, the media was aspirated and cells were washed with PBS (2.0 mL) and trypsinized (500 μL). The cell suspension was then diluted with 2.0 mL F-12+/+. 200 μL aliquots were added to 3 wells of a Lab-Tek II 4-well chambered coverglass slide (Fisher), producing 4 slides in total, each with three wells of cells. The cell suspension was directly diluted with 600 μL of additional F-12+/+. The resulting samples were incubated for ˜24 hrs. prior to imaging.
Fluorescent images were obtained using a Leica SP8 White Light Confocal microscope and the Leica AF software package. Prior to analysis, media was aspirated and 800 μL of PBS (Hyclone, without Ca^2+ or Mg^2+) supplemented with glucose (10 mM) was added to each well of the chambered coverglass slide. Bryostatin and bryostatin analogs were diluted to the appropriate concentration in 200 μL of 10 mM glucose in PBS. Cells were located for imaging and data was recorded for three wells in parallel, imaging at predetermined positions in each well using adaptive focus control. Cells were imaged at 30 second intervals following the addition of compound (set to t=0) for 20-40 minutes. Data were recorded at room temperature. Images were exported as .lif files and fluorescence intensity was analyzed using FIJI (NIH) software.

PKCδ = biological target: T2, PKCδ (Homo sapiens, UniProt Q05655); assay: cell-free competitive PKC binding assay with [3H]-phorbol dibutyrate; settings: competition with [3H]-PDBu, recombinant human PKC isoform
T2 construct: purchased Invitrogen
Description: as §1, §2, §3, §4, §5, §6, §7, §8
Triplicate data points were obtained for each analog concentration. For each data point, 280 μL of “Master Mix” Solution and 20 μL of analog compound at a specified concentration were added to a polypropylene tube. […] Maximal ^3H-PDBu binding was assessed in triplicate by substitution of the analog compound with 20 μL DMSO. The solutions were vortexed to mix, incubated at 37° C. for 10 min, and incubated on ice for at least 30 min prior to filtration. Using a Brandel Harvester, the assay contents from each polypropylene tube were vacuum-filtered through polyethylenimine-soaked filters, washing with rinsing buffer (3×) and drying first under vacuum for 5 min and then under ambient conditions for ≥2 h. The resulting filters had circular perforations for each data point, which were removed with forceps and placed in a scintillation vial. Scintillation vials were filled with Bio-Safe II scintillation fluid (5 mL) and measured for radioactivity using a Beckman LS 6000SC scintillation counter. Counts per minute (cpm) were averaged for each triplicate dilution. The data were plotted—cpm vs. log(concentration)—using Prism® by GraphPad Software and an IC50 was determined using that program's built-in one-site competition least squares regression function. […] The Kd of ^3H-PDBu for PKC isoforms was measured separately via saturation binding experiments under identical conditions.

PKC = assay: cell-free PKC binding assay, isoform not given; set-up: species or system human
Description: as §1, §4, §9

[1] = tested on: CD22 surface expression in NALM6 cells; assay: CD22 surface expression assay by flow cytometry; type: cell-based, human; settings: Homo sapiens, NALM-6; At 1 nM, relative to DMSO control; NALM6 cells; read-out: Fold increase CD22 expression
Description: Cell cultures were maintained between 4×10^5 and 3×10^6 cells/mL according to vendor instructions.
Cell suspension from a confluent T75 flask (Fisher) was transferred to a 15 mL falcon tube and centrifuged at 1100 rpm for 7 minutes. […] Cells were counted using a Countess II Automated Cell Counter (Fisher). […] 199 μL of this stock was added to 24 wells (enough for triplicate measurements for 8 different experimental conditions) in a 96-well plate. […] 1 μL of DMSO or the appropriate stock solution of compound in DMSO was added to each well. Cells were incubated for 24 hours, at which point the cell suspensions were transferred to 1.5 mL Eppendorf tubes and diluted with 1.0 mL of PBS (Hyclone, without Ca^2+ or Mg^2+). Samples were centrifuged at 2000 rpm for 5 min at RT. […] Cells were sub-cultured between 2×10^5 and 3×10^6 cells/mL in 24-well plates for an additional 24 hrs-7 days, at which point CD22 surface expression was assayed by flow cytometry.
Cells from one well were counted using a Countess II Automated Cell Counter (Fisher). ˜200,000-300,000 cells from each well were added to 1.5 mL Eppendorf tubes containing PBS (final volume ˜1.2 mL). The cell suspensions were centrifuged at 1500 rpm for 7 minutes at 4° C. The supernatant was aspirated, and the cell pellet was resuspended in 99 μL of pre-chilled FACS buffer (0.5% w/v BSA in PBS). […] Samples were then diluted with an additional 1.0 mL of FACS buffer and centrifuged at 1500 rpm for 7 minutes at 4° C. […] Cells were stained with DAPI and CD22 surface expression was analyzed using the FACScan Analyzer at the Stanford Shared FACS Facility. Data analysis was performed using FlowJo and Microsoft Excel.

T2 sequence (Q05655 whole entry, canonical isoform): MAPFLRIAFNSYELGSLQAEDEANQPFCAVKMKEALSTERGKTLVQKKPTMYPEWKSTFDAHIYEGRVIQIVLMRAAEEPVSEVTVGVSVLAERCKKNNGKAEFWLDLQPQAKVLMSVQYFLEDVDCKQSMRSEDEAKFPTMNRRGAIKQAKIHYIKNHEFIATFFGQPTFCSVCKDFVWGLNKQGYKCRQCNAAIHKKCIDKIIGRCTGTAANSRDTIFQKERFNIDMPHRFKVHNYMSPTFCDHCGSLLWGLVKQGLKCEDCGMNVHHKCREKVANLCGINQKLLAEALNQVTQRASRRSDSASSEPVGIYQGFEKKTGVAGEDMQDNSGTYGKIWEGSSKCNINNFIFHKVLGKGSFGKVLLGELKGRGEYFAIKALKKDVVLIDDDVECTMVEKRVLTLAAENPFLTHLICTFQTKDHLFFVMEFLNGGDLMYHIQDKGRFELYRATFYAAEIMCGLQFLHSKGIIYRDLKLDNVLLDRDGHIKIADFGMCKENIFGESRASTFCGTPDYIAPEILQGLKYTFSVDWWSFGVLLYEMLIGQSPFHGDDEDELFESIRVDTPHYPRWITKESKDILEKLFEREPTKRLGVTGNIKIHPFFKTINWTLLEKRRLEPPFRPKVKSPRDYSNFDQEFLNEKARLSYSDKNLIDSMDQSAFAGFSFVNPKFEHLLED

Structure (SMILES) | Ki (PKCα) [nM] | concentration* (minimum effective concentration required to induce translocation of PKC-GFP to the membrane) (PKCδ-GFP fusion protein) [nM] | % Translocation (PKCδ-GFP fusion protein) [%] | Ki (PKCδ) [nM] | binding affinity to PKC, in words (PKC) | activity in the PKC translocation assay at 200 nM (PKCδ-GFP fusion protein; 200 nM) | cytosolic PKC translocated to the plasma membrane (PKCδ-GFP fusion protein; 1000 nM, at about 5 minutes) [%] | cytosolic PKC translocated to the plasma membrane (PKCδ-GFP fusion protein; 200 nM, at 20 minutes) [%] | sustained translocation of PKC (PKCδ-GFP fusion protein; at up to 1000 nM) | fold induction at 0.001 µM [1]
C=CCOC(=O)/C=C1\C[C@H]2C[C@]3(O)O[C@H](C[C@@H](O)CC(=O)O[C@@H]([C@@H](C)O)C[C@@H]4C/C(=C\C(=O)OC)[C@H](OC(=O)/C=C/C=C/CCC)[C@@](O)(O4)C(C)(C)/C=C/[C@@H](C1)O2)C[C@H](OC(C)=O)C3(C)C [SUW230] | 4.2 | 200 | 65 | 9.4 |  |  |  |  |  | 
CCCC=CC=CC(=O)OC1C(=CC(=O)OC)CC2CC(C(C)O)OC(=O)CC(O)CC3CC(OC(C)=O)C(C)(C)C(O)(CC4CC(OC(=O)CCc5c[nH]c6ccccc56)CC(C=CC(C)(C)C1(O)O2)O4)O3 (centres unmarked) [SUW210] | 5.6 | 1000 | 75 | 7.3 | high affinity PKC binders | inactive | ~70 |  |  | 
CCCCCC#CC(=O)O[C@H]1/C(=C/C(=O)OC)C[C@H]2C[C@H]([C@@H](C)O)OC(=O)C[C@H](O)C[C@@H]3C[C@H](OC(C)=O)C(C)(C)[C@](O)(C[C@@H]4C[C@H](O)C[C@H](/C=C/C(C)(C)[C@]1(O)O2)O4)O3 [SUW204] |  | 200 | 25 |  |  |  |  | ~25 |  | 
CCC/C=C/C=C/C(=O)O[C@H]1/C(=C/C(=O)OC)C[C@H]2C[C@H]([C@@H](C)O)OC(=O)C[C@H](O)C[C@@H]3C[C@H](OC(C)=O)C(C)(C)[C@](O)(C[C@@H]4C[C@H](OC(=O)CN(C)C)C[C@H](/C=C/C(C)(C)[C@]1(O)O2)O4)O3 [SUW211] | 98 | 1000 | 20 | 27 |  |  |  |  | did not achieve sustained translocation | 
C=C1CC2C=CC(C)(C)C3(O)OC(CC(=CC(=O)OC)C3OC(=O)C#CCCCCC)CC(C(C)O)OC(=O)CC(O)CC3CC(OC(C)=O)C(C)(C)C(O)(CC(C1)O2)O3 (centres unmarked) [SUW200] |  | 200 | 70 |  |  |  |  |  |  | 1.73
CCC/C=C/C=C/C(=O)O[C@H]1/C(=C/C(=O)OC)C[C@H]2C[C@H]([C@@H](C)O)OC(=O)C[C@H](O)C[C@@H]3C[C@H](OC(C)=O)C(C)(C)[C@](O)(C[C@@H]4C/C(=C\C(=O)OCc5ccccc5)C[C@H](/C=C/C(C)(C)[C@]1(O)O2)O4)O3 [SUW220] | 16 | 1000 | 50 | 15 |  |  |  |  |  | 
